From patent publication US20230399325A1, “SUCCINATE AND CRYSTAL FORM THEREOF AS THERAPEUTICS” (AUCENTRA THERAPEUTICS PTY LTD, priority 2020, published 2023)
Values after ≈ are worked out from the molar mass of the structure shown. Values joined by “and” are separate entries in the source; they are usually repeats but may differ in a detail not shown here. Identical values can stand only once. Like-named read-outs stand apart in the source and are kept apart here.

Columns and labels:
[1] = tested on: COLO 205 colorectal tumor xenograft; assay: COLO 205 colorectal tumor xenograft; format: in vivo, mice; conditions: 15 mg/kg intraperitoneally
Protocol: A separate study of Compound A succinate was conducted in COLO 205 colorectal tumor xenograft. The tumor-bearing mice (n=8) were treated orally with vehicle (ultra-pure water), or Compound A succinate (50 or 100 mg/kg) once daily for 21 days. As a positive control chemotherapy 5-FU (15 mg/kg) was given intraperitoneally. […] 5-FU was also effective with a T/C=47.2% (Table 7).

[2] = Dynamic solubility in water and FaSSIF at 37° C.; format: physicochemical; conditions: for solubility compared to Compound A free base: both FaSSIF and water; for solubility at 1 h / solubility at 2 h / solubility at 4 h / solubility at 24 h: thermodynamic from solid, read-out: S: Solubility
[3] = Solid-state stability, 14 days, HPLC; format: physicochemical
Protocol: Compound A salts and Compound A were tested for their solid-state stability under the conditions of 25° C./60% RH and 40° C./75% RH.

[4] = Hygroscopicity by dynamic moisture adsorption (DVS); format: physicochemical; conditions: for Hygroscopicity: 25° C./80% RH
Protocol: Dynamic moisture adsorption (DVS) was used to evaluate the hygroscopicity of compound A and salt forms under the condition of 25° C. and 80% RH.

[5] = Pharmacokinetic study of Compound A in male cynomolgus monkeys; format: in vivo
Protocol: Two groups of male cynomolgus monkeys (n=3 per group) were given Compound A by a single intravenous injection (i.v.) of 5 mg/kg, or intragastric administration (i.g.) of 50 mg/kg. Blood samples were collected at different time points. The exposure of Compound A in plasma samples were measured by LC-MS/MS method, and PK parameters (Table 8) were calculated using Phoenix WinNonlin 8.0 software.

[6] = tested on: A2780 ovarian cancer cells; assay: Subcutaneous A2780 ovarian cancer xenograft; format: in vivo, female BALB/c nude mice; conditions: 75 mg/kg orally once a day
Protocol: Compound A succinate was also assessed for in vivo anti-tumor activity in subcutaneous xenografts. Briefly, female BALB/c nude mice were inoculated with A2780 ovarian cancer cells; when the mean tumour volume reached 150-200 mm^3, animals were randomized to groups. The animals (n=8 per group) were treated orally with vehicle (ultra-pure water), Compound A succinate (62.5, 125 or 250 mg/kg), or Palbociclib (75 mg/kg) once a day for 14 consecutive days. Mice were observed daily for signs of toxicity and weight loss, and tumour volume measured every other day. […] Palbociclib was efficacious at 75 mg/kg, resulting in T/C of 42.8% (Table 6).

[7] = cynomolgus monkey, plasma, iv, i.v. 5 mg/kg
[8] = cynomolgus monkey, plasma, po, i.g. 50 mg/kg

Structure (SMILES)	S: Solubility ([2]; FaSSIF, 1 hour) [µg/mL]	S: Solubility ([2]; FaSSIF, 2 hours) [µg/mL]	S: Solubility ([2]; FaSSIF, 4 hours) [µg/mL]	S: Solubility ([2]; FaSSIF, 24 hours) [µg/mL]	S: Solubility ([2]; H2O, 1 hour) [µg/mL]	S: Solubility ([2]; H2O, 2 hours) [µg/mL]	S: Solubility ([2]; H2O, 4 hours) [µg/mL]	S: Solubility ([2]; H2O, 24 hours) [µg/mL]	solubility compared to Compound A free base [2]	Purity ([3]; 25° C./60% RH) [area %]	Relative purity ([3]; 25° C./60% RH)	Purity ([3]; 40° C./75% RH) [area %]	Relative purity ([3]; 40° C./75% RH)	Moisture absorbed at 25° C./80% RH [4] [%]	Hygroscopicity [4]	further results
O=c1[nH]cc(F)c(=O)[nH]1 [Compound 5-FU, 5-FU, reference compound]	–	–	–	–	–	–	–	–	–	–	–	–	–	–	–	Inhibition of tumor growth (T/C) [1]: 47.2%; Tumor volume (±S) [1]: 799.62 ± 61.95 mm^3
CCN1CCN(Cc2ccc(Nc3ncc(F)c(-c4sc(NC5CCCC5)nc4C)n3)nc2)CC1.Cl [Compound A hydrochloride]	2000	2000	2200	2100	6800	7100	7200	6800	significantly increased	97.6	99.9 % of initial	97.7	100.0 % of initial	3.4	Hygroscopic	–
CCN1CCN(Cc2ccc(Nc3ncc(F)c(-c4sc(NC5CCCC5)nc4C)n3)nc2)CC1.CS(=O)(=O)O [Compound A mesylate]	8800	8300	8400	4400	8200	8300	8600	8500	significantly increased	97.6	100.1 % of initial	97.5	100.0 % of initial	14.4	Extremely hygroscopic	–
CCN1CCN(Cc2ccc(Nc3ncc(F)c(-c4sc(NC5CCCC5)nc4C)n3)nc2)CC1.O=P(O)(O)O [Compound A phosphate]	1700	670	470	330	450	410	440	360	–	98.3	100.0 % of initial	98.2	99.9 % of initial	3.7	Hygroscopic	–
CCN1CCN(Cc2ccc(Nc3ncc(F)c(-c4sc(NC5CCCC5)nc4C)n3)nc2)CC1 [Compound A, N-Cyclopentyl-5-(2-((5-((4-ethylpiperazin-1-yl)methyl)pyridin-2-yl)amino)-5-fluoropyrimidin-4-yl)-4-methylthiazol-2-amine]	–	–	–	–	–	–	–	–	–	97.6	100.0 % of initial	97.6	100.1 % of initial	1.4	Slightly hygroscopic	solubility at 1 h ([2]; FaSSIF, 1 hour): 270 µg/mL (≈ 544 µM); solubility at 2 h ([2]; FaSSIF, 2 hours): 280 µg/mL (≈ 564 µM); solubility at 4 h ([2]; FaSSIF, 4 hours): 240 µg/mL (≈ 483 µM); solubility at 24 h ([2]; FaSSIF, 24 hours): 200 µg/mL (≈ 403 µM); solubility at 1 h ([2]; water, H2O, 1 hour): 220 µg/mL (≈ 443 µM); solubility at 2 h ([2]; water, H2O, 2 hours): 240 µg/mL (≈ 483 µM); solubility at 4 h ([2]; water, H2O, 4 hours): 240 µg/mL (≈ 483 µM); solubility at 24 h ([2]; water, H2O, 24 hours): 220 µg/mL (≈ 443 µM); AUC(0-inf) [5, 7]: 4560 ng·h/mL; AUC(0-t) [5, 7]: 4190 ng·h/mL; Cmax [5, 7]: 447 ng/mL; Vd [5, 7]: 9.8 L/kg; clearance [5, 7]: 19.4 mL/min/kg; half-life [5, 7]: 6.5 h; Cmax [5, 8]: 643 ng/mL; half-life [5, 8]: 8.3 h; F ([5]; i.g. 50 mg/kg): 21.8%
CC(=O)c1c(C)c2cnc(Nc3ccc(N4CCNCC4)cn3)nc2n(C2CCCC2)c1=O [Palbociclib, reference compound]	–	–	–	–	–	–	–	–	–	–	–	–	–	–	–	Tumor volume (±S) ([6]; 14 days): 1850.1 ± 121.1 mm^3; Mean tumor growth inhibition (T/C) ([6]; day 14): 42.8% and 42.79%
